In a melting point compilation (Tetko et al.; mined from patent text by program, amines drawn as free bases though some values may be those of a salt):

Row | SMILES | melting point
1 | O=C1c2cc(OCc3ccccc3)ccc2OCC1Oc1cccnc1 (configuration not stated) | 133 to 134 °C
2 | NC(=O)c1ccc(-c2ccc(-c3ccc(C(F)(F)F)cc3)o2)cc1 | 263 to 264 °C
3 | Fc1ccc(Cl)cc1-c1nnn[nH]1 | 124 °C
4 | COc1cc(Cc2cnc(N3C(=O)c4ccccc4C3=O)nc2N)cc(OC)c1OC | 221 °C
5 | COCc1cccc2oc(C(=O)Nc3ccc(-c4ccc(S(=O)(=O)NC(C(=O)O)C(C)C)cc4)cc3)c(C)c12 (configuration not stated) | 227 to 230 °C
6 | Cc1c(NC(=O)CC(C)(C)C)c(C)c2c(c1-c1ccccn1)OCC2c1ccc(C(C)C)cc1 (configuration not stated) | 198 to 200 °C
7 | Cc1cc(C(=O)O)ccc1C#CCc1ccc2c(c1)C(C)(C)CCC2(C)C | 196 to 197 °C
8 | CCOC(=S)Nc1nc(OCc2ccc(F)cc2)ncc1F | 109 to 119 °C
9 | COC(=O)Cc1c(Cl)nc(-c2ccccc2)n1Cc1ccc(C)cc1 | 92 to 95 °C
10 | COCCn1cc2c(C3C(=O)Nc4ccc(Br)cc43)nc(Cl)nc2n1 (configuration not stated) | > 300 °C
11 | Cc1c([N+](=O)[O-])ccc2[nH]cc(CCCO)c12 | 129 to 130 °C
12 | NC(=O)c1ccc(C(=O)O)c(N)c1 | 276 to 278 °C
13 | CC(C)(C)c1ccc2c(c1)C(=O)c1ccc(C(=O)O)cc1S2(=O)=O | 259 to 262 °C
14 | CN1C(=O)CC[C@]2(C)c3ccc(-c4ccc(Cl)c(Cl)c4)cc3CC[C@@H]12 | 129 to 135 °C
15 | CN(C(=O)c1cccc(C(=C2CC3CCC(C2)N3C)c2ccccc2)c1)c1cccc(F)c1 | 122 to 125 °C
16 | CC(=O)OCCn1c2c(c3ccccc3c1=O)C(=O)c1ccccc1-2 | 221 to 224 °C
17 | CCN1CCN(Cc2cc(-c3ccc4c(Nc5cc(OC)c(Cl)cc5Cl)c(C#N)cnc4c3)cs2)CC1 | 118 to 120 °C
18 | CCCCOc1ccc(C(=O)N(C)Cc2cccc(-c3ccc(CC4SC(=O)NC4=O)cc3)c2)cc1 (configuration not stated) | 116 °C
19 | O=C1c2ccccc2C(=O)N1CCCCOc1ccc(-n2cnnn2)cc1 | 143 to 145 °C
20 | O=Cc1c(N2CCNCC2)n(-c2ccccc2)c2ccccc12 | 175 °C
21 | N#CCC(CC#N)c1ccccc1Br | 94 to 96 °C
22 | CCc1c(O)ccc2c1CCCC2 | 94 to 95 °C
23 | CCO[C@@H]1C[C@@H](C(=O)NC)N(S(=O)(=O)c2ccc(Cl)c(COc3cccc4c(-n5ccnc5)cc(C)nc34)c2Cl)C1 | 80 °C
24 | CCN1CCCC(NC2c3ccccc3Oc3ccccc32)C1 (configuration not stated) | 47.5 to 48.5 °C
25 | CC(C)[C@H](NC(=O)c1ccc2ccccc2n1)C(=O)NC(Cc1ccccc1)C(O)CNCC(O)C(Cc1ccccc1)NC(=O)OC(C)(C)C (some centres not stated) | 192 to 194 °C
26 | CCN1c2ncccc2C(=NC#N)Nc2c(C)cc(C)nc21 | 230 to 233 °C

Row | SMILES | melting point
27 | Cn1ncnc1COc1nc2c(-c3ccccc3F)nncn2c1C1CCC1 | 120 °C
28 | CC(c1oc2ccccc2c(=O)c1-c1cccc(F)c1)n1nc(-c2cccc3[nH]ncc23)c2c(N)ncnc21 (configuration not stated) | 231 to 233 °C
29 | CS(=O)(=O)N(Cc1cccnc1)c1ccccc1F | 120 °C
30 | CCOC(=O)c1ccc(OCCCCCCc2cccc(OCc3ccccc3)c2OCc2ccccc2)cc1 | 63 to 65 °C
31 | CN(Cc1cc2ccccc2n1C)C(=O)/C=C/c1ccc(N2C(=O)CCC2=O)nc1 | 185 to 187 °C
32 | Nc1ccc(Sc2ncccn2)cc1 | 124 to 126 °C
33 | O=C(O)c1ccc(-c2nc(-c3ccc(C(F)(F)F)cc3)co2)cc1 | 258 to 259 °C
34 | Cc1cc(NC2=NN(c3ccccc3)CC2)cc(C)c1O | 154 to 158 °C
35 | CC(=O)Nc1cc(C(F)(F)F)cc(C(F)(F)F)c1[N+](=O)[O-] | 190 to 192 °C
36 | Cc1cccc(Nc2cc(Nc3ccc(OCC(O)CN(C)C)cc3)ncn2)c1 (configuration not stated) | 192 to 195 °C
37 | O=C(NC1CN2CCC1CC2)c1ccccc1Cc1ccccc1 (racemic) | 187 to 188 °C
38 | CCC(CC)(CCCS(N)(=O)=O)COc1nn2ccnc2cc1C | 139 to 140 °C
39 | COc1ccc(Oc2nc(Nc3cccc(C(=O)O)c3)nc(Oc3ccc(C#N)cc3)n2)cc1 | 240 to 242 °C
40 | O=C(NC1CCN(CCc2ccc([N+](=O)[O-])cc2)CC1)c1ccccc1 | 209 to 216 °C
41 | N#Cc1cnn(-c2c(Cl)cc(Cl)cc2Cl)c1Cl | 78 to 79 °C
42 | Cc1c(F)c(N2CCNCC2)c(F)c2c1c(=O)c(C(=O)O)cn2C1CC1 | 205 to 206 °C
43 | C#CCN(Cc1cc2c(=O)n(CCN(C)C)c(CN3CCCCC3)nc2cc1Cl)c1ccc(C(=O)NCc2cccnc2)cc1 | 90 to 93 °C
44 | COc1ccc(N2CCN(c3c(C)c(C)c4c(c3C)CC(C)(CN)O4)CC2)cc1 (configuration not stated) | 134 to 137 °C
45 | CCCCOC(=O)NC(=O)C(C)(c1ccccc1)c1ccccc1 | 83 °C
46 | CCOC(=O)c1nc(-c2ccc([N+](=O)[O-])cc2)[nH]c1-c1ccc(OCC)cc1 | 214 to 217 °C
47 | CCCc1cc(CO)cc(=O)[nH]1 | 167 °C
48 | CCOc1nn(-c2ccc(C(F)(F)F)cn2)cc1CCCOc1ccc(CCC(=O)O)cc1OCc1ccccc1 | 115 to 116 °C
49 | O=C(O)C(Cc1ccccc1)Oc1ccc2cc(-c3cnc(Cc4ccccc4)o3)ccc2c1 (configuration not stated) | 78 to 82 °C
50 | Cc1c(SCCCSCc2ccc(Cl)s2)ccnc1CNc1cnc2ccccc2c1 | 127 to 131 °C
51 | Cc1cc(Br)ccc1C1(Cn2cncn2)OCCO1 | 148 °C

More lines, now with the values ahead:

Row | melting point | SMILES
52 | 114 to 116 °C | CC(C)(C)OC(=O)NCc1cccc(OCCC2Oc3ccccc3N(Cc3ccc(Cl)cc3)C2=O)c1 (configuration not stated)
53 | 119 to 122 °C | CCCc1c(OCCCSc2ccc(CC(=O)O)c(Cl)c2Cl)ccc(C(C)=O)c1O
54 | 262 to 264 °C | NC(=O)COc1c(-c2ccccc2)c(=O)[nH]c2cc(Cl)ccc12
55 | 103 to 105 °C | COc1ccc2c(c1C)CCCC2=O
56 | 104 to 116 °C | COc1ccc2c(c1)CC[C@@H]1[C@@H]2CC[C@@]2(C)[C@H]1CCC2(OC)OC
57 | 158 to 160 °C | CS(=O)(=O)Nc1ccc(C(=N)Nc2cc(Cl)cc(NC(=O)/C=C/c3ccccc3Cl)c2)cc1
58 | 111 to 112 °C | CC(C)N(C(C)C)C(C)CN1C(=O)C(=O)c2ccccc21 (configuration not stated)
59 | 235 to 236 °C | CCOC(=O)Nc1nc(-c2ccccc2)c(-c2nc3ccccc3c(=O)n2-c2cccc(Cl)c2)s1
60 | 121 to 122 °C | CCC(=O)c1cccc(C(N)=O)c1
61 | 168 to 169 °C | CC(C)(C)OC(=O)NCCc1ccnc(-c2nc(=O)c3ccc(Cl)cc3s2)c1
62 | 154 to 155 °C | O=C(Nc1ccc(-n2nc(C(F)(F)F)cc2OC(F)F)cc1)c1cccc(F)c1F
63 | 246 to 248 °C | CCN1CCN(c2ccc(-c3ccc4c(Nc5ccc(Sc6nccn6C)c(Cl)c5)c(C#N)cnc4c3)nc2)CC1
64 | 177 to 178 °C | CON=CC(C)(C)C(O)(COc1cccc2ccccc12)Cn1ccnc1 (configuration not stated)
65 | 218 °C | CS(=O)(=O)c1ccc(C2=C(c3ccc(-c4cscn4)cc3)C(=O)OC2)cc1F
66 | 66 to 67 °C | Brc1cnc(SCc2ccccc2)nc1SCc1ccccc1
67 | 177 °C | O=S(=O)(Cc1ccc(Cl)c(Cl)c1)Cc1ccc(Cl)c(Cl)c1
68 | 129 to 130 °C | NC(=O)c1ccccc1C(=O)NCCCN1CCC(c2noc3cc(F)ccc23)CC1
69 | 87 to 88 °C | N#Cc1cc(N2CCCCC2)ccc1N
70 | 67 °C | COC(=O)c1ccc(OC2=C(Oc3ccc(C(=O)OC)cc3)C(F)(F)C(F)(F)C2(F)F)cc1
71 | 69 to 71 °C | CCCCCC(Oc1ccc(C2=CCCCCC2)cc1)C(=O)O (configuration not stated)
72 | 238 °C | CC(=O)NC[C@H]1CN(c2ccc(-n3cc(-c4ccc(Cl)cc4)cn3)c(F)c2)C(=O)O1
73 | 62 to 63 °C | COC(=O)CCCC#CCN1C(=O)c2ccccc2C1=O
74 | 207 to 208 °C | CC(C)(C)OC(=O)N1CCN(c2ccc(OC[C@H]3CCn4cc([N+](=O)[O-])nc4O3)cc2)CC1

Row | melting point | SMILES
75 | 232 to 234 °C | O=C(NCC1CC1)c1[nH]c2ccc(Cl)cc2c1S(=O)(=O)c1ccccc1
76 | 273 to 275 °C | CCn1cc(C(=O)O)c(=O)c2cn(C)nc21
77 | 105 to 106 °C | CN(C)Cc1cc(C(=O)c2cccs2)cc(C2CCCCC2)c1O
78 | 179 to 180 °C | CC(=O)Nc1ccn(C2OC(COC(C)=O)C(Br)C2OC(C)=O)c(=O)n1 (configuration not stated)
79 | 139 to 142 °C | CCC1(CCCCN2CCN(c3cccc(Cl)c3)CC2)C(=O)Nc2ccc(Cl)cc21 (configuration not stated)
80 | 102 to 104 °C | O=Cc1cc2c(cc1O)CCO2
81 | 229 to 231 °C | Cc1cccc(NC(=O)c2ccccc2CN2C(=O)C3(COc4cc5c(cc43)CCO5)c3ccccc32)c1 (configuration not stated)
82 | 191 to 193 °C | CC(C)Oc1ccccc1-c1ncc(C(=O)O)c(=O)[nH]1
83 | 157 to 159 °C | Cc1ccnc2c(Oc3ccc(N)cc3)cccc12
84 | 177 to 179 °C | CC(C)(C)OC(=O)N1CCC(N2C(=O)OCc3cc(Cl)ccc32)CC1
85 | 252 °C | O=C(Nc1ccc(S(=O)(=O)N2CCOCC2)cc1)c1cc(N2CCOCC2)ccc1[N+](=O)[O-]
86 | 166 to 169 °C | O=C(NCCO)C(=O)NCCO
87 | 191 °C | Cc1ccc(-c2ncccc2OC2SCC(O)C(O)C2O)o1 (configuration not stated)
88 | 71.6 to 72.8 °C | CC(CO)(CO)C(=O)OCc1ccccc1
89 | 218 to 219 °C | CC(O)c1cc2c(s1)C(=O)c1c(C(C)O)csc1C2=O (configuration not stated)
90 | 56 to 59 °C | CC(=O)Oc1nsnc1-c1c(Cl)cccc1Cl
91 | 169 to 171 °C | C=C1C(=O)N(CC(=O)O)C(=O)N1Cc1cccc([N+](=O)[O-])c1
92 | 86 to 87 °C | O=S(=O)(Nc1cccc(CCOCc2csc(-c3ccccc3Cl)n2)c1)C(F)(F)F
93 | 128 to 130 °C | Cc1cc(C(=O)c2ccc(F)c(C)c2)ccc1F
94 | 40 to 42 °C | C[C@@H](C(N)=O)c1ccc(NS(C)(=O)=O)c(F)c1
95 | 96 to 98 °C | Cc1nn(C)c(C#N)c1[N+](=O)[O-]
96 | 137 to 138 °C | O=C(Nc1ccccc1)N1CC(Oc2cccc(C(F)(F)F)c2)C1
97 | 121 to 122 °C | Cc1oc(-c2ccccc2)nc1COc1ccc(C(=O)c2ccccc2O)cc1
